Assay results as given in patent US20240317727A1 (Duke University, priority 2018, published 2024).

Tests used:
ACHN = assay: NCI60 cell growth and viability: ACHN; assay type: cell-based; conditions: Renal Cancer, two days
U251 = assay: NCI60 cell growth and viability: U251; assay type: cell-based; conditions: U251, CNS Cancer, two days
TK-10 = assay: NCI60 cell growth and viability: TK-10; assay type: cell-based; conditions: TK-10, Renal Cancer, two days
SW-620 = assay: NCI60 cell growth and viability: SW-620; assay type: cell-based; conditions: SW-620, Colon Cancer, two days
HCT-15 = assay: NCI60 cell growth and viability: HCT-15; assay type: cell-based; conditions: HCT-15, Colon Cancer, two days
OVCAR-5 = assay: NCI60 cell growth and viability: OVCAR-5; assay type: cell-based; conditions: OVCAR-5, Ovarian Cancer, two days
HSF1 target gene, Hsp70 = assay: Hsp70 transcript in mouse liver and heart tissue, qRT-PCR; assay type: in vivo; conditions: mice, 25 mpk three times per week i.p., vs vehicle, relative to GAPDH, FIG. 6B
Method: The cells were treated for 96 hours with the indicated concentrations of the compounds of the disclosure and cell viability was measured with the AlamarBlue assay. […]. […] After sacrificing the mice on the last day of the administration, mouse liver and heart tissue was isolated, messenger RNA extracted and the transcript abundance of the HSF1 target gene, Hsp70, was evaluated by qRT-PCR relative to the internal RNA control, GAPDH. The results of the vehicle-treated versus Compound 0017-treated experiments were compared. […]; **=P<0.01 in accordance with one embodiment of the present disclosure.

SF-295 = assay: NCI60 cell growth and viability: SF-295; assay type: cell-based; conditions: SF-295, CNS Cancer, two days
SK-MEL-2 = assay: NCI60 cell growth and viability: SK-MEL-2; assay type: cell-based; conditions: SK-MEL-2, Melanoma, two days
786-0 = assay: NCI60 cell growth and viability: 786-0; assay type: cell-based; conditions: 786-0, Renal Cancer, two days
SNB-19 = assay: NCI60 cell growth and viability: SNB-19; assay type: cell-based; conditions: SNB-19, CNS Cancer, two days
UO-31 = assay: NCI60 cell growth and viability: UO-31; assay type: cell-based; conditions: UO-31, Renal Cancer, two days
T-47D = assay: NCI60 cell growth and viability: T-47D; assay type: cell-based; conditions: Breast Cancer, two days
UACC-62 = assay: NCI60 cell growth and viability: UACC-62; assay type: cell-based; conditions: UACC-62, Melanoma, two days
[1] = test system: C4/2 prostate cancer cells; assay: Mouse xenograft model of Prostate Cancer; assay type: in vivo; conditions: nude mice, 25 mg/kg every other day intraperitoneal, vs vehicle
Method: FIGS. 7A and 7B are graphs showing that the compounds of the disclosure inhibit tumor growth in a mouse xenograft model of Prostate Cancer. Nude mice were inoculated on their flank with one million C4/2 prostate cancer cells (n=20 mice). One week after inoculation, tumors were apparent and mice were then treated with either vehicle (n=10 mice) or Compound 0017 (n=10 mice) at 25 mg/kg every other day by intraperitoneal administration. On the indicated days after the start of vehicle or Compound 0017 administration, tumors were measured in situ with a caliper and tumor volume calculated in cubic millimeters (FIG. 7A). Simultaneously, mouse weight was determined (FIG. 7B). Error bars represent standard error of the mean. **=P<0.01 in accordance with one embodiment of the present disclosure.

MDA-MB-231 = assay: NCI60 cell growth and viability: MDA-MB-231; assay type: cell-based; conditions: MDA-MB-231, Breast Cancer, two days
HCC-2998 = assay: NCI60 cell growth and viability: HCC-2998; assay type: cell-based; conditions: HCC-2998, Colon Cancer, two days
OVCAR-3 = assay: NCI60 cell growth and viability: OVCAR-3
HL-60(TB) = assay: cells; assay type: cell-based; conditions: Leukemia, two days
MOLT-4 = assay: NCI60 cell growth and viability: MOLT-4; assay type: cell-based; conditions: MOLT-4, Leukemia, two days
[2] = Homo sapiens, 48 h, read-out: log10 [GI50 (M)] (converted)
[3] = Homo sapiens, 48 h, read-out: log10 [LC50 (M)] (converted)

O=C(Nc1ccc(F)cc1)Nc1ccc(Cl)c([N+](=O)[O-])c1 [Compound 0017, 1-(4-chloro-3-nitrophenyl)-3-(4-fluorophenyl)urea]
GI50 (ACHN; [2]): 2.95e-06 M
CC50 (ACHN; [3]): 6.03e-05 M
log10 [TGI (M)] (ACHN): −4.96 log10 M
GI50 (U251; Homo sapiens, U-251, 48 h, read-out: log10 [GI50 (M)] (converted)): 3.16e-06 M
CC50 (U251; Homo sapiens, U-251, 48 h, read-out: log10 [LC50 (M)] (converted)): 4.37e-05 M
log10 [TGI (M)] (U251): −4.90 log10 M
GI50 (TK-10; [2]): 4.07e-06 M
CC50 (TK-10; [3]): 6.92e-05 M
log10 [TGI (M)] (TK-10): −4.70 log10 M
GI50 (SW-620; [2]): 3.47e-06 M
CC50 (SW-620; [3]): 4.79e-05 M
log10 [TGI (M)] (SW-620): −4.86 log10 M
log10 [TGI (M)] (HCT-15): −4.92 log10 M
GI50 (HCT-15; [2]): 2.95e-06 M
CC50 (HCT-15; [3]): 3.72e-05 M
GI50 (OVCAR-5; [2]): 3.55e-06 M
CC50 (OVCAR-5; [3]): 6.46e-05 M
log10 [TGI (M)] (OVCAR-5): −4.83 log10 M
Hsp70 transcript abundance in liver and heart tissue (HSF1 target gene, Hsp70): inhibits expression of the HSF1 target Hsp70
GI50 (SF-295; [2]): 2.29e-06 M
CC50 (SF-295; [3]): 3.09e-05 M
log10 [TGI (M)] (SF-295): −5.10 log10 M
GI50 (SK-MEL-2; [2]): 2.34e-06 M
CC50 (SK-MEL-2; [3]): 2.51e-05 M
log10 [TGI (M)] (SK-MEL-2): −5.23 log10 M
log10 [TGI (M)] (786-0): −4.88 log10 M
GI50 (786-0; [2]): 3.39e-06 M
CC50 (786-0; [3]): 3.8e-05 M
GI50 (SNB-19; [2]): 3.55e-06 M
CC50 (SNB-19; [3]): 4.68e-05 M
log10 [TGI (M)] (SNB-19): −4.84 log10 M
GI50 (UO-31; [2]): 2.69e-06 M
CC50 (UO-31; [3]): 3.47e-05 M
log10 [TGI (M)] (UO-31): −4.97 log10 M
log10 [TGI (M)] (T-47D): −5.01 log10 M
GI50 (T-47D; Homo sapiens, T47D, 48 h, read-out: log10 [GI50 (M)] (converted)): 2.19e-06 M
CC50 (T-47D; Homo sapiens, T47D, 48 h, read-out: log10 [LC50 (M)] (converted)): 5.13e-05 M
GI50 (UACC-62; [2]): 3.02e-06 M
CC50 (UACC-62; [3]): 3.63e-05 M
log10 [TGI (M)] (UACC-62): −4.88 log10 M
mouse weight ([1]; FIG. 7B): without impacting the weight
tumor growth (tumor volume) ([1]; C4-2 derived tumors, 21-day, FIG. 7A): inhibits the growth
GI50 (MDA-MB-231; [2]): 2.51e-06 M
CC50 (MDA-MB-231; [3]): 3.39e-05 M
log10 [TGI (M)] (MDA-MB-231): −5.19 log10 M
log10 [TGI (M)] (HCC-2998): −4.84 log10 M
GI50 (HCC-2998; [2]): 3.72e-06 M
CC50 (HCC-2998; [3]): 4.27e-05 M
GI50 (OVCAR-3; Homo sapiens, OVCAR-3, 48 h, read-out: log10 [GI50 (M)] (converted)): 3.8e-06 M
CC50 (OVCAR-3; Homo sapiens, OVCAR-3, 48 h, read-out: log10 [LC50 (M)] (converted)): 9.55e-05 M
log10 [TGI (M)] (OVCAR-3; OVCAR-3, Ovarian Cancer, two days): −4.72 log10 M
GI50 (HL-60(TB); [2]): 2.51e-06 M
CC50 (HL-60(TB); [3]): ≥ 0.0001 M
log10 [TGI (M)] (HL-60(TB)): −5.07 log10 M
GI50 (MOLT-4; [2]): 3.16e-06 M
CC50 (MOLT-4; [3]): ≥ 0.0001 M
log10 [TGI (M)] (MOLT-4): −4.03 log10 M
